{"source": "patent US6444234B1", "about": "“Compositions for rapid and non-irritating transdermal delivery of pharmaceutically active agents and methods for formulating such compositions and delivery thereof” (priority 1998, dated 2002)", "key": {"[1]": {"assay": "Pilot trial on three hairless rats, blood samples after topical delivery system", "format": "in vivo, hairless rat", "experimental": "A pilot trial is performed on three hairless rats, during which a baseline blood sample is drawn, then 1 ml of the topical delivery system containing a titrated dose of each of the three test drugs is administered to each of the rats. Samples are harvested at 30 and 60 minutes."}, "[2]": {"assay": "Laboratory solubilization of amitriptyline in the modified stock delivery system", "format": "physicochemical", "details": "modified SDS; predicted amount within experimental error of the actual amount", "from_the_text": "The following Table 4 illustrates how the balancing of molar van der Waals forces can be utilized as a predictor of the solubilization of amitriptyline in the stock delivery system. In this case the calculations for balancing molar van der Waals forces were made first using the Chem3D software and the solutions were thereafter formulated in the laboratory. The amount predicted to dissolve, 2.08 gm per 100 c.c., was within experimental error of the actual amount which would dissolve in the laboratory experiment. In this case, the system was balanced by increasing the amounts of methylsulfonylmethane and ethanol and decreasing the amount of propylene glycol."}, "[3]": {"format": "physicochemical", "from_the_text": "The following tables are typical data sheets generated by the Chem3D software. These charts confirm the independent experimental solubility data and also, in Tables 1-3, show how modulation of the carrier system allows a higher dose of the test medicament, Diosgenin (MW=414.61).\nIt is pointed out, however, that the formulations shown in the following Tables, and which are based on the above described Stock Delivery System, were originally prepared without benefit of the use of the Chem 3D software and included omission of several different modifiers. Modifications to the SDS to effect solubilization and increase solute solvent ratios were made by the inventor on the basis of knowledge of how and where the solute (drug) works in the body and using this information to make intuitive predictions of how the solute would interact with the surrounding molecules of the SDS, such as induced polarities relative to other molecules; induction of electric fields due to influence of surrounding molecules; hydrophobic versus hydrophilic properties, etc., while always taking into consideration the desired functional effects contributed by each ingredient. […]"}, "[4]": {"assay": "Full-scale protocol trial on 15 hairless rats", "details": "topical", "experimental": "Samples for the morphine and acyclovir groups are taken at 30 minutes, 60 minutes and 120 minutes."}, "air pouch granulomas": {"tested_on": "air pouch granulomas", "assay": "Murine Chronic Granulomatous Air-Pouch Model", "format": "in vivo, mouse", "details": "normally sub-effective dose (30 mg/kg); decrease in dry weight of the granuloma", "from_the_text": "This example describes the results of an animal (mouse) study performed at St. Bartholomew's and The Royal London School of Medicine and Dentistry, Department of Experimental Pathology, to establish the efficacy of the topical delivery system, based on the Stock Delivery System of this invention for transdermal delivery of Cystamine (2,2′-dithiobisethanamine). A Murine Chronic Granulomatous Air-Pouch Model was used for evaluation of the delivery of the drug with SDS versus a control vehicle alone; control vehicle plus drug; and SDS alone.\nIn this study, 1 milligram (mg) of cystamine was added to 0.5 cc of Standard Stock Solution (SDS) as previously described, or to a control vehicle (aqueous isopropanol). In each case, the active ingredient (cystamine) was administered in an amount of 30 mg per kilogram of body weight.\nMice (TO or BALB/c, for hormone studies, 30±5 g) were lightly anaesthetized with halothane. Three milliliters of air were injected subcutaneously into the scruff of the neck using a 25 G needle. The shape of the air pouch was controlled by manipulation during inflation. […]\nVascularity was assessed by a modified form (see Kimura et al, [need citation] 1986) of the Carmine Red Vascular Casting technique. […] The dye content was measured spectrophotometrically at 490 nm against a standard curve of dye from 1-100 μg/ml. […]"}}, "data": [{"smiles": "Nc1nc2c(ncn2COCCO)c(=O)[nH]1", "note": "[Acyclovir]", "values": [{"measurement": "blood sample level, Baseline", "setting": "[1]; hairless, rat, in vivo", "result": 0}]}, {"smiles": "CN(C)CCC=C1c2ccccc2CCc2ccccc21", "note": "[Amitriptyline]", "values": [{"measurement": "actual amount which would dissolve in the laboratory experiment", "setting": "[2]", "result": "~2.08", "unit": "gm per 100 c.c."}]}, {"smiles": "C[C@@H]1CC[C@@]2(OC1)O[C@H]1C[C@H]3[C@@H]4CC=C5C[C@@H](O)CC[C@]5(C)[C@H]4CC[C@]3(C)[C@H]1[C@@H]2C", "note": "[Diosgenin, (25R)-Spirost-5-en-3β-ol]", "values": [{"measurement": "increase of solubilized dose", "setting": "[3]", "result": "~5", "unit": "fold"}]}, {"smiles": "C[C@]12CC[C@H]3[C@@H](CCC4=CC(=O)CC[C@@]43C)[C@@H]1CC[C@@H]2O", "note": "[Testosterone]", "values": [{"measurement": "blood sample level, 30 minutes", "setting": "[1]; testosterone 5 mg in 1 ml, topical", "result": "1,552 ng/dl"}, {"measurement": "increase of testosterone levels", "setting": "[4]; in one hour, 5 mg in 1 ml", "result": 10, "unit": "fold"}]}, {"smiles": "NCCSSCCN", "note": "[cystamine, 2,2′-dithiobisethanamine]", "values": [{"measurement": "efficacy of the dose when delivered with SDS", "setting": "air pouch granulomas", "result": "effective dose"}]}, {"smiles": "CN1CC[C@]23c4c5ccc(O)c4O[C@H]2[C@@H](O)C=C[C@H]3[C@H]1C5.O=S(=O)(O)O", "note": "[morphine sulfate]", "values": [{"measurement": "blood sample level, Baseline", "setting": "[1]; before 1 ml of the topical delivery system", "result": 0}, {"measurement": "blood sample level, 60 minutes", "setting": "[1]; morphine 2.5 mg in 1 ml, topical", "result": 45, "unit": "nmol/L"}, {"measurement": "blood levels compared with intravenous dosing", "setting": "[4]; 2.5 mg dose of morphine", "result": "equivalent to a 10 mg IV dose"}]}]}
